Reference: ChEMBL document CHEMBL1201862, “PubChem BioAssay data set” (2004)
Calls of active or inactive are those of the source.

How the values were obtained:
[1] = cells; type: functional
[2] = growth suppression of PTEN-null colon cells, dose response, cell-based, HCT116 PTEN knockout (AID 1047); type: functional;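 also: HCT116 colon tumor cells with PTEN knocked out; cells exposed to compound for 60 hours before readout; potency for loss of cell viability measured by luminescence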
[3] = THP-1 cell cytotoxicity, dose response, cytotoxicity control for non-replicating M. tuberculosis project (AID 489025); type: functional
[4] = growth suppression of beta-catenin-knockout colon cells, dose response, cell-based, HCT116, human colon tumor (AID 1045); type: functional;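 also: HCT116 colon tumor cells with beta catenin knocked out; cells exposed to compound for 60 hours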
[5] = Vero E6 cell cytotoxicity, dose response, cytotoxicity control for non-replicating M. tuberculosis project, secondary assay (AID 492998); type: functional, VeroE6; conditions: Vero C1008
[6] = target: T1, Short transient receptor potential channel 4 (Mus musculus, UniProt Q9QUQ5); assay: mouse TRPC4 channel inhibitors, dose response, cell-based, HEK293 TRPC4/mu-opioid, Fluo-4 calcium (AID 434942); type: functional;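 also: potency of inhibitors blocking the TRPC4 calcium response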
T1 sequence (Q9QUQ5 whole entry): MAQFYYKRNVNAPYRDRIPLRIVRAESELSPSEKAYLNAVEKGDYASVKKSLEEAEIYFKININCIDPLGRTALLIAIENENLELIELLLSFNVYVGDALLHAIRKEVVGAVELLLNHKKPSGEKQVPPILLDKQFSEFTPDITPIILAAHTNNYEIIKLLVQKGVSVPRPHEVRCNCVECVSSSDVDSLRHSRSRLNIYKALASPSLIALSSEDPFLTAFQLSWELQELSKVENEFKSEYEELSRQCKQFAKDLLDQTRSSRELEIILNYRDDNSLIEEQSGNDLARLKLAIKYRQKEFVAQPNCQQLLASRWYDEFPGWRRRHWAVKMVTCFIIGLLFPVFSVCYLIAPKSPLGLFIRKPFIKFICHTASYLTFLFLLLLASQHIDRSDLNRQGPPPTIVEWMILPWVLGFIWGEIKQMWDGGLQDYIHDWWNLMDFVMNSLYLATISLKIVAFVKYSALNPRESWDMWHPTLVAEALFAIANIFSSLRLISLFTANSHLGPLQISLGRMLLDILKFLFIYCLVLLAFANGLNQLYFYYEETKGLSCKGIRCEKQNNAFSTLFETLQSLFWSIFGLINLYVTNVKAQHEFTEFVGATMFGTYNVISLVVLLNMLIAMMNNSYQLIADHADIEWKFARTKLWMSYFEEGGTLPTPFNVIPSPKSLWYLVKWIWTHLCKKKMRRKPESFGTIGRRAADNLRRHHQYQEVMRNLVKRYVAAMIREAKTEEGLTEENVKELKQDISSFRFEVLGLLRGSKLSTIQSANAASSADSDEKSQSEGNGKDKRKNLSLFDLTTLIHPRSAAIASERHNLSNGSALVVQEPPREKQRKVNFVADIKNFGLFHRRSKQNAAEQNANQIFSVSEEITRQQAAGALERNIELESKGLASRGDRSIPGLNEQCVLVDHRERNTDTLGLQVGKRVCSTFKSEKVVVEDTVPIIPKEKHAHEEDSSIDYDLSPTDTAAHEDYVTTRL

[7] = target: T1, Short transient receptor potential channel 4; assay: mouse TRPC4 channel activators, dose response, cell-based, HEK293 TRPC4/mu-opioid, Fluo-4 calcium (AID 434937); type: functional
[8] = target: T2, Aminopeptidase N (Plasmodium falciparum FcB1/Columbia, UniProt O96935); assay: P. falciparum M1AAP inhibitors, biochemical, fluorogenic H-Leu-NHMec substrate, 1536-well (AID 1445); design: species or system Plasmodium falciparum 3D7, 3D7
T2 sequence (O96935 whole entry): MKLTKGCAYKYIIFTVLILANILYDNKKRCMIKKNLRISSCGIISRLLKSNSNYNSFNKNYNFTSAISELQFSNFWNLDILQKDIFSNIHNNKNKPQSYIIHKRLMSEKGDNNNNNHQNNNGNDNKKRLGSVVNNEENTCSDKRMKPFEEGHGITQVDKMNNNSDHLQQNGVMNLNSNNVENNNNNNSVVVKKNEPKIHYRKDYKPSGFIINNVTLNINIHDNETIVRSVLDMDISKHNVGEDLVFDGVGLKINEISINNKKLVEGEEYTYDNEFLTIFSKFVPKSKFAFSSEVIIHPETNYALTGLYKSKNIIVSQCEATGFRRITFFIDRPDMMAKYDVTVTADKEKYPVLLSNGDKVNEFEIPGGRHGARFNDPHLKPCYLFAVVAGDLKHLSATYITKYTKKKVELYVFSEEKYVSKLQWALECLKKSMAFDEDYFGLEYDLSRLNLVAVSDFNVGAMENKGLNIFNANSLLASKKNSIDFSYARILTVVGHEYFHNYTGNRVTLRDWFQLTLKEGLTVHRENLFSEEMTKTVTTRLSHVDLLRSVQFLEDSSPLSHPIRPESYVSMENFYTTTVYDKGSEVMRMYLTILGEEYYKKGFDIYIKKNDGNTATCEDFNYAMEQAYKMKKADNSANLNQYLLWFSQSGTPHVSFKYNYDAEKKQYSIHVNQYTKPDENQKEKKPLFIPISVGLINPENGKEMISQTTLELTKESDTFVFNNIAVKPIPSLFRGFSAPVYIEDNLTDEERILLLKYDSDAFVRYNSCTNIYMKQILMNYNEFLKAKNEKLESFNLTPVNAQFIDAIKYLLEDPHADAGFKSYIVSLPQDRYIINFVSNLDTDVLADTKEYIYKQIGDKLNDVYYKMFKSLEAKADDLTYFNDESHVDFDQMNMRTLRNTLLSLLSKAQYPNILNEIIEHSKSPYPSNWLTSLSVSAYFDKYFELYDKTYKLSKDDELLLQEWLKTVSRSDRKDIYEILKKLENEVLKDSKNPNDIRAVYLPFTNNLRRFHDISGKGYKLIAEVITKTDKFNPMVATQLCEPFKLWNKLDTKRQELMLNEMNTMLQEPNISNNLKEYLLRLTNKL

[9] = target: Cytochrome P450 3A4 (Homo sapiens, UniProt P08684);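 also: CYP3A4 tested as one member of a cytochrome P450 panel screen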
Cytochrome P450 3A4, sequence (P08684 whole entry): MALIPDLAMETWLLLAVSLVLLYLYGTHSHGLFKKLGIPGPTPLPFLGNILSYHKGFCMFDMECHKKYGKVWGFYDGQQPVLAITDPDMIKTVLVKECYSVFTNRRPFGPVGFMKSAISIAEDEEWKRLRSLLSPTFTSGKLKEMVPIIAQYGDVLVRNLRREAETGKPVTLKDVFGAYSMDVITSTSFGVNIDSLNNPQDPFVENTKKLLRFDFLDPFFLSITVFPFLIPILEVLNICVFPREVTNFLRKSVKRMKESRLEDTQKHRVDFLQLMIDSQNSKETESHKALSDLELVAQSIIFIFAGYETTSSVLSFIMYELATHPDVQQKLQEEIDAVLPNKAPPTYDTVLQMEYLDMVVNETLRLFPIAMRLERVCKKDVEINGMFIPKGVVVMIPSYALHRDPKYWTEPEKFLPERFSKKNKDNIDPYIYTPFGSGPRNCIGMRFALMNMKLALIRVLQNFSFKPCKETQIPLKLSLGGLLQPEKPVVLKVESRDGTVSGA

[10] = target: DNA dC->dU-editing enzyme APOBEC-3G (Homo sapiens, UniProt Q9HC16); type: functional;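 also: Dose-response counterscreen measuring inhibition of APOBEC3G DNA deaminase activity, run while confirming APOBEC3A inhibitors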
DNA dC->dU-editing enzyme APOBEC-3G, sequence (Q9HC16 whole entry): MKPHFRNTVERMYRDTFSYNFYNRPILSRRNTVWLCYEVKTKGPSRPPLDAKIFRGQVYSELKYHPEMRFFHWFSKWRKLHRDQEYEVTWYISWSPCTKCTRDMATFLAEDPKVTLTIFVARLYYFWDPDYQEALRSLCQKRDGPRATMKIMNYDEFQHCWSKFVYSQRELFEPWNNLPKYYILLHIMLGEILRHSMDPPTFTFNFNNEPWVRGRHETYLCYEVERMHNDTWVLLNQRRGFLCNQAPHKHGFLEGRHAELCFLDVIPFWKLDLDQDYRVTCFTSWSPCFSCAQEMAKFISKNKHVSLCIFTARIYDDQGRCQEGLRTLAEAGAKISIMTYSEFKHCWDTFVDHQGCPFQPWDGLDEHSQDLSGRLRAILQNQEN

[11] = target: DNA dC->dU-editing enzyme APOBEC-3A (Homo sapiens, UniProt P31941); assay: Dose Response confirmation of small molecule APOBEC3A DNA Deaminase Inhibitors via a fluorescence-based single-stranded DNA deaminase assay. [Related pubchem assays (depositor defined):AID493011, AID493024]; type: functional
DNA dC->dU-editing enzyme APOBEC-3A, sequence (P31941 whole entry, the tested form may be a part): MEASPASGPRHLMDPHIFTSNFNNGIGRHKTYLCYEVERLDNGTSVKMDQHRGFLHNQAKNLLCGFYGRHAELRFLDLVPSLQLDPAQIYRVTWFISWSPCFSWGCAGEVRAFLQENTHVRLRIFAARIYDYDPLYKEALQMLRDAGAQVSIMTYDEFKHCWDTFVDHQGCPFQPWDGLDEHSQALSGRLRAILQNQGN

[12] = target: Nucleotide-binding oligomerization domain-containing protein 2 (Homo sapiens, UniProt Q9HC29); assay: NOD2 signaling inhibitors, cell-based, luminescence, uHTS, HEK293 (AID 1566); type: functional
Nucleotide-binding oligomerization domain-containing protein 2, sequence (Q9HC29 whole entry, the tested form may be a part): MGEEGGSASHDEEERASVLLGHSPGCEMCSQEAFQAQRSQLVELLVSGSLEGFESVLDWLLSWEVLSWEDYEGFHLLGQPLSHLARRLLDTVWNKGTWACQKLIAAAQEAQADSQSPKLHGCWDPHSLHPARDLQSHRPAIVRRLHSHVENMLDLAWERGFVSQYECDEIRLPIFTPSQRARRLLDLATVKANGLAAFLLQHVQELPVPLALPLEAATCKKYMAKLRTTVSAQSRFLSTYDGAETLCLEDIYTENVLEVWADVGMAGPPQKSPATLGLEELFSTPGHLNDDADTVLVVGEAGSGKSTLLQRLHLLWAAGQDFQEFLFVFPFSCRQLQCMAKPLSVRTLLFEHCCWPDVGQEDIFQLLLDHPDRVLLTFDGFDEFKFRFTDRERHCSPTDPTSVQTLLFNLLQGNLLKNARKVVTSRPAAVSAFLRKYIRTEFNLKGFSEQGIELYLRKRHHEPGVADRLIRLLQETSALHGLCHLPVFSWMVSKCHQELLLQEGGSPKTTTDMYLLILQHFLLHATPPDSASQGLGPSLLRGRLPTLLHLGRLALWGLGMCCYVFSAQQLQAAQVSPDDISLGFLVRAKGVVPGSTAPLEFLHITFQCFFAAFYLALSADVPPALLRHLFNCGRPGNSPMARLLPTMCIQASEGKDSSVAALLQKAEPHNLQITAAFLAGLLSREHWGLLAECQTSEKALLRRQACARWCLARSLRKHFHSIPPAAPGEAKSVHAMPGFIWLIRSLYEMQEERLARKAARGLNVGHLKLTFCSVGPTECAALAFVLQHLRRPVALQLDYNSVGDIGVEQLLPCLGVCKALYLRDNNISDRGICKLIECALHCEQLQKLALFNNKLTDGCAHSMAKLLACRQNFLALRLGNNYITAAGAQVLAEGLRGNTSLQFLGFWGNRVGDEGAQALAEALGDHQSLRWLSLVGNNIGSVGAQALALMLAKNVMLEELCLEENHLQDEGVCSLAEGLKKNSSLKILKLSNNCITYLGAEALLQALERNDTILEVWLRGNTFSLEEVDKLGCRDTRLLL

[13] = system: INS1; assay: beta cell apoptosis inhibitors, cytokine rescue, dose response, luminescence, retest (AID 449756); type: functional, cell-based; conditions: Rattus norvegicus;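 also: cell death triggered by IL-1 beta plus TNF-alpha plus IFN-gamma mixture; protective hits raise ATP signal compared with cytokine alone wells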
[14] = system: HEK293; assay: cells; type: functional, cell-based; conditions: Homo sapiens
[15] = system: HEK293; assay: NOD2 signaling inhibitors in MDP-stimulated cells, cell-based, uHTS, luminescence (AID 2001); type: functional; conditions: Homo sapiens
[16] = system: HEK293; assay: NOD1 signaling inhibitors, primary screen, cell-based, luminescence, uHTS (AID 1578); type: functional; conditions: Homo sapiens
[17] = system: HEK293; assay: cells; type: functional, cell-based; conditions: Homo sapiens; remark: listed apart in the source
[18] = system: HEK293; assay: cells; type: functional, cell-based; conditions: Homo sapiens; remark: listed apart in the source
[19] = target: T3, Corticotropin-releasing factor receptor 2/Corticotropin-releasing factor-binding protein (Homo sapiens, UniProt P24387+Q13324); assay: activators of CRF receptor 2 with binding protein – uHTS hits, confirmation (AID 602473); type: functional; conditions: read-out: EC50_Mean
T3 sequence (Q13324 whole entry): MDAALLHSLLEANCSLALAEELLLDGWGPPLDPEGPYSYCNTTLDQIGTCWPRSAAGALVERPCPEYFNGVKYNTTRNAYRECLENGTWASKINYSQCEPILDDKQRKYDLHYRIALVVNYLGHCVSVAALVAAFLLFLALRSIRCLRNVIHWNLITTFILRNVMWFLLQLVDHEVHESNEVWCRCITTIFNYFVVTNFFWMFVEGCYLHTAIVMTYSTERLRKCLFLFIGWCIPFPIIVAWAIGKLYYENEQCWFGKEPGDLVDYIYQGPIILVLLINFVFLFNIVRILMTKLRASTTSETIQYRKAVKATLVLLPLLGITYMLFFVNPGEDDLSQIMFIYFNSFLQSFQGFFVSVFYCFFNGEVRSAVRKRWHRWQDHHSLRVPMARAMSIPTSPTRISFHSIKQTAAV
T3 sequence (P24387 whole entry): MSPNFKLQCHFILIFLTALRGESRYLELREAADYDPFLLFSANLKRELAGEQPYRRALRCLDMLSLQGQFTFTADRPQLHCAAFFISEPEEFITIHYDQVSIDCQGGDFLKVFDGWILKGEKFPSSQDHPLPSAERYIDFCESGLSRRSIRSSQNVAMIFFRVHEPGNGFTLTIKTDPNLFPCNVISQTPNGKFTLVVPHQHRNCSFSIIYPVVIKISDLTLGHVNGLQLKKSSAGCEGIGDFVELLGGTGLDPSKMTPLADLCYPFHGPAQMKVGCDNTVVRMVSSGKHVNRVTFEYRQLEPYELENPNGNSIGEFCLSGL

[20] = NIH-3T3 fibroblast cytotoxicity, dose response, cytotoxicity control, cell-based, fluorescence, Alamar Blue, secondary assay (AID 2327); type: functional;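 also: NIH-3T3 mouse fibroblasts cultured with fluconazole at 8 µg/mL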
[21] = C. albicans growth with fluconazole, confirmation, fluorescence, retest (AID 2467); type: functional, cell-based
[22] = target: T4, Leucine aminopeptidase (Plasmodium falciparum 3D7, UniProt Q8IL11); assay: P. falciparum M17LAP inhibitors, primary screen, biochemical, fluorogenic H-Leu-NHMec substrate, 1536-well (AID 1619); type: functional
T4 sequence (Q8IL11 whole entry): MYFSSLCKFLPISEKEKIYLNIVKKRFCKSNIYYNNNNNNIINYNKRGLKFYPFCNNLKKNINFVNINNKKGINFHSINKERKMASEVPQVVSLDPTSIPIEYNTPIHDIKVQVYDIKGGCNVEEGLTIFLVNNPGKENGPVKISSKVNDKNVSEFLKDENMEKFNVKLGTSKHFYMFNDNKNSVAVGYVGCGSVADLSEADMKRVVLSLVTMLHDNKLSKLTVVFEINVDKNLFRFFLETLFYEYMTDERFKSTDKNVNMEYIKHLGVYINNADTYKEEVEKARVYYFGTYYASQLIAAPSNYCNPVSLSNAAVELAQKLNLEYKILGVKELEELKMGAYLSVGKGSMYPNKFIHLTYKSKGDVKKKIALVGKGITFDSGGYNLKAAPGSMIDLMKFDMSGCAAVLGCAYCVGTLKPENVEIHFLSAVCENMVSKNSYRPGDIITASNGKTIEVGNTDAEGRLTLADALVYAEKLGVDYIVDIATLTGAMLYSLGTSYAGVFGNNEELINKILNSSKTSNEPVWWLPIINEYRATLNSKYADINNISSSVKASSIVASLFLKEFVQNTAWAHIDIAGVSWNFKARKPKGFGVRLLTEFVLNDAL

## COc1ccc(/C=C2\COc3ccccc3C2=O)cc1OC
[1]
  IC50: 12.8 µM (active)
[2]
  EC50: 7.42 µM (active)
[3]
  CC50: 17.9 µM (active)
[4]
  EC50: 7.29 µM (active)
[5]
  CC50: > 20 µM (active)

## CCCCC(c1nnnn1CC1CCCO1)N1CCN(Cc2ccccc2)CC1 (stereo not drawn)
[6]
  EC50: 2.37 µM (active)
[7]
  EC50: 4.73 µM (active)

## COc1cc(OC)c(NC(=O)c2ccc3c(SCC(=O)O)c4c(nc3c2)CCCC4)cc1Cl
[8]
  IC50: 31.6 µM (active)

## O=S(=O)(c1cccc(C(F)(F)F)c1)N1CCC(c2cc(-c3cccc4ccccc34)[nH]n2)CC1
[9]
  AC50: inconclusive

## CCc1ccc(/C=C/c2c[nH]c3ccccc23)[n+](CC)c1
[10]
  IC50: 2.24 µM (active)
[11]
  IC50: 2.33 µM (active)

## Cc1ccc(-c2c(C#N)c(N)n3c(nc4ccccc43)c2C#N)cc1
[12]
  EC50: > 20 µM (inactive)
[13]
  AC50: 3.86 µM (active)
[14]
  IC50: 11 µM (active)
[15]
  IC50: 6.22 µM (active)
[16]
  EC50: 2.11 µM (active)
[17]
  IC50: 6.06 µM (active)
[18]
  IC50: > 20 µM (inactive)

## CCn1nc(NC(=O)COC)c2cc3cc(C)ccc3nc21
[10]
  IC50: 6.5 µM (active)
[11]
  IC50: 5.02 µM (active)

## COc1cc(CNCCc2ccccc2)cc(Br)c1OCC(=O)Nc1ccccc1C
[1]
  IC50: 21.2 µM (active)
[3]
  CC50: 23.1 µM (active)
[5]
  CC50: 19.4 µM (active)

## CN1CCN(S(=O)(=O)c2cccc(C(=O)N3CCN(c4ccccc4F)CC3)c2)CC1
[10]
  IC50: 19.2 µM (active)
[11]
  IC50: 10.1 µM (active)

## CC1CN(C(=O)c2ccc(NS(=O)(=O)c3ccc(C(C)(C)C)cc3)cc2)CC(C)O1 (stereo not drawn)
[7]
  EC50: 5.96 µM (active)
[19]
  EC50: 15.7 µM (active)

## CC1=CC(C)(C)[N+](C)(C)c2ccccc21
[10]
  IC50: 2.98 µM (active)
[11]
  IC50: 2.6 µM (active)

## COc1ccc(-c2nn(-c3ccccc3C)cc2CNC(C)c2cn(C)nc2C)cc1F (stereo not drawn)
[7]
  EC50: 1.68 µM (active)

## Cc1nonc1C(=O)N/N=C/c1ccc([N+](=O)[O-])o1
[12]
  EC50: 10.9 µM (active)
[1]
  IC50: 8.02 µM (active)
[20]
  EC50: 30.2 µM (active)
[14]
  IC50: > 20 µM (inactive)
[15]
  IC50: > 20 µM (inactive)
[21]
  EC50: 1.82 µM (active)
[16]
  EC50: 9.04 µM (active)
[17]
  IC50: > 20 µM (inactive)
[18]
  IC50: > 20 µM (inactive)

## NC(N)=Nc1nc2ccc([N+](=O)[O-])cc2[nH]1
[9]
  AC50: inconclusive

## CCOc1cc(/C=N/NC(=O)c2cccs2)cc([N+](=O)[O-])c1O
[8]
  IC50: 103 µM (active)

## COc1ccc(/C=N/NC2=NC(=O)C(CC(=O)O)S2)cc1OCc1ccc(Cl)cc1 (stereo not drawn)
[22]
  IC50: 20.3 µM (active)
[8]
  IC50: 66.7 µM (active)
